Data from patent publication US20020045247A1, “METHODS FOR THE PREPARATION OF RETROVIRAL PARTICLES AND CELL LINES DEFICIENT IN THE ALPHA-GALACTOSYL EPITOPE” (priority 1997, published 2002).

Experiments:
[1] = tested on: Golgi α-mannosidase I; conditions: addition of inhibitor; cited from earlier work
[2] = tested on: complement-mediated inactivation of amphotropic retroviral particles in human serum; assay: Retrovirus killing assay in human serum preincubated with soluble carbohydrates; format: cell-based; conditions: for effect on complement-mediated retrovirus inactivation / retrovirus survival: 5 mg/ml carbohydrate preincubated with 40% human serum, titered on NIH/3T3 cells
Experimental: (§1) RVVP samples were assayed for titer of infectious RVVPs on NIH/3T3 cells (ATCC designation CCL 163). 2.5×10^4 cells were plated per well in 6-well plates with 2 ml of DMEM containing 10% fetal bovine serum (D10). The medium in each well was replaced with 2 ml of D10 containing 8 μg/ml of polybrene and retroviral particles were added. Ten-fold dilutions were made from the original well and plates were incubated for 24 h at 37° C. Medium was removed and 2 ml of D10 containing 500 μg/ml of G418 (active weight) was added. The cells were maintained under selection for 7 days with 2 changes of medium during this period. Finally, medium was removed and colonies were stained with methylene blue saturated methanol for 15 min. followed by a brief rinse in water. Wells containing less than 100 colonies were counted to determine titers.
Retroviral vector particles, including those from PA317 or PA317/H-transferase cells, (approximately 500 CFU) were incubated for 30 min. at 37° C. in 100 μl of 40% primate sera diluted in Hank's balanced salt solution (HBSS) and subsequently titered on NIH/3T3 cells to assess retrovirus survival as described above. The different primate sera included human (Diamedix, Cambridge, Mass.), chimpanzee (Southwest Foundation for Research, San Antonio, Tex.), baboon, squirrel monkey, owl monkey and tamarin (all from the New England Regional Primate Research Center, Southborough, Mass.). Data were calculated as percent retrovirus survival in the various sera relative to the number of input CFU (determined by incubation of virus in 40% heat inactivated human serum). […] In the anti-αgalactosyl antibody depletion experiments, retroviral particles were preincubated with either anti-αgalactosyl antibody (90 μg/ml) or buffer alone (PBS; BioWhittaker, Walkersville, Md.) for 30 min. at 37° C. before the addition of either 40% human serum, 40% human serum depleted of anti-αgalactosyl antibodies or 40% squirrel monkey serum for an additional 30 min. incubation. Retrovirus survival was then assessed as described above.

[3] = tested on: inactivation of LXSN retroviral vector particles by human serum; assay: Inactivation of LXSN retroviral vector particles in human serum in the presence of added sugars (Example 2); format: cell-based; conditions: 0.3125, 0.625, 1.25, 2.5 and 5 mg/ml; 40% human serum; relative to samples without added sugars
Experimental: as §1
LXSN retroviral vector particles were prepared as described above. Aliquots of a 40% solution of human serum in HBSS were then incubated for 15 minutes at room temperature with added sugars. The sugars added were D-glucose (Mallinckrodt, Paris, Ky.) and galactose alpha-1,3 galactose (Dextra Laboratories, Reading, England), and were added at concentrations of 0.3125, 0.625, 1.25, 2.5, and 5 mg/ml. […] The results of these titrations were calculated as fold increase in retroviral vector particle survival relative to the control samples, and are set forth in FIG. 2.

[4] = target: T1, α-glucosidase I (Homo sapiens, UniProt Q13724); conditions: addition of inhibitor; cited from earlier work
T1 sequence (Q13724 1-837): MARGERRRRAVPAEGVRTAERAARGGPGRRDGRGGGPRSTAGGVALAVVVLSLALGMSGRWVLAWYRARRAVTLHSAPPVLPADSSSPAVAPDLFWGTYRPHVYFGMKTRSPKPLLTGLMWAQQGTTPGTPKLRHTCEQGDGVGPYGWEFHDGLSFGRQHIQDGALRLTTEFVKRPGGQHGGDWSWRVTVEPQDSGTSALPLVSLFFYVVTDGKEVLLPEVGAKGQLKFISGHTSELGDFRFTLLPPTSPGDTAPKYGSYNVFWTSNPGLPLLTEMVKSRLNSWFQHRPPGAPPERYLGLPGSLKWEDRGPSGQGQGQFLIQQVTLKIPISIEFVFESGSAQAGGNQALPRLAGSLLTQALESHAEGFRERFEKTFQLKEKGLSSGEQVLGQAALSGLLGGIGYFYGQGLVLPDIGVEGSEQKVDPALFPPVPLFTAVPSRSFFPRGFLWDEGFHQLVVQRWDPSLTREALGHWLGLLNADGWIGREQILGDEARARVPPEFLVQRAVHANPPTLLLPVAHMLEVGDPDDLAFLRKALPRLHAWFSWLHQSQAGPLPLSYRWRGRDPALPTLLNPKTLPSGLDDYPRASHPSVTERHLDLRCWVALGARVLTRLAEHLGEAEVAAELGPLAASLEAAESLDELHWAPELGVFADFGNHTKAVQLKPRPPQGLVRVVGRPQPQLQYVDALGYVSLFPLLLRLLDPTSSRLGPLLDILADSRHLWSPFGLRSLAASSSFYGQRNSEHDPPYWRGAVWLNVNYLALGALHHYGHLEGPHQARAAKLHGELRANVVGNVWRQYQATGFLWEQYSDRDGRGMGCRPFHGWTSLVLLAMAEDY

[5] = target: T2, Golgi α-mannosidase II (Homo sapiens, UniProt Q16706); conditions: addition of inhibitor; cited from earlier work
T2 sequence (Q16706 1-1144): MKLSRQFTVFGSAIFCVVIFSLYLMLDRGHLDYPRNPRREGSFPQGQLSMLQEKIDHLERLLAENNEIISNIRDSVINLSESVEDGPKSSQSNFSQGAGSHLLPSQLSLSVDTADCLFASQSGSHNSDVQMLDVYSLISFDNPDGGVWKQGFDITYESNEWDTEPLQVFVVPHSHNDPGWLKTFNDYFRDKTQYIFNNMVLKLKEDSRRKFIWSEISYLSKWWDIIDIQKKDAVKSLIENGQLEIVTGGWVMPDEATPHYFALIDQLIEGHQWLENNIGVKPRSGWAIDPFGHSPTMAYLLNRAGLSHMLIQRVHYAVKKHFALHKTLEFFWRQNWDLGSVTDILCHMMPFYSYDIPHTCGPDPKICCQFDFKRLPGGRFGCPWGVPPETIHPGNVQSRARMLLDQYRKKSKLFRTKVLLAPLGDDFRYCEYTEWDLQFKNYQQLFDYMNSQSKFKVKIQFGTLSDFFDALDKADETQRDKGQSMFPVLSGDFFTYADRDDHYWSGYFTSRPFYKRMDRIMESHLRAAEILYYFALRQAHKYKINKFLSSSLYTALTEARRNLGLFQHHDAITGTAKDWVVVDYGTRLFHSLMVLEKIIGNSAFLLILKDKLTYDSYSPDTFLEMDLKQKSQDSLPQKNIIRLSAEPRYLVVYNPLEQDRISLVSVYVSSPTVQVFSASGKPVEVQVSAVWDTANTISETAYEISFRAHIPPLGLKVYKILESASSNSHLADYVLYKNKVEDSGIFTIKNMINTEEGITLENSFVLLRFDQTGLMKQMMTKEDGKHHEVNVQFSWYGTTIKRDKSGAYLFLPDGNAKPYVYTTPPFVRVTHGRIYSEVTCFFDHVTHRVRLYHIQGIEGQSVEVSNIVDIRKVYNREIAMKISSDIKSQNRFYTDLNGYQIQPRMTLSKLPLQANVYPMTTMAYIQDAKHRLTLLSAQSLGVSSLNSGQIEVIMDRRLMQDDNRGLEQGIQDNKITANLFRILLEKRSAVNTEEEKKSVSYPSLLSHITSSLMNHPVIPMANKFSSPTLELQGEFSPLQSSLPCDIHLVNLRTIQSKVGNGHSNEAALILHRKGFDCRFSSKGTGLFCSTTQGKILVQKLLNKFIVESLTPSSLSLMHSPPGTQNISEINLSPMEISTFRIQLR

OC[C@H]1NC[C@@H](O)[C@@H](O)[C@@H]1O [1-deoxymannojirimycin]
activity of Golgi α-mannosidase I [1]: greatly reduced

O=C[C@H](O)[C@@H](O)[C@@H](O)[C@H](O)CO [D(+) galactose]
inhibition at 5000 µg/mL ([2]; 5 mg/ml, 40% human serum): ~25%

O=C[C@H](O)[C@@H](O)[C@H](O)[C@H](O)CO [D(+) glucose]
effect on complement-mediated retrovirus inactivation / retrovirus survival [2]: did not affect retrovirus survival | reduction of inactivation of retroviral vector particles by human serum [3]: not

OC[C@H]1O[C@H](O[C@H]2[C@@H](O)[C@@H](CO)OC(O)[C@@H]2O)[C@H](O)[C@@H](O)[C@H]1O (stereo partly drawn) [Galα1-3Gal, galactose α1-3 galactose]
effect on complement-mediated retrovirus inactivation / retrovirus survival [2]: completely blocked complement-mediated virolysis | inhibition of retrovirus inactivation, dose dependence ([2]; various concentrations, 40% human serum): inhibited retrovirus inactivation in a dose-dependent manner | reduction of inactivation of retroviral vector particles by human serum [3]: substantially reduces the inactivation of the retroviral vector particles

CN1C[C@H](O)[C@@H](O)[C@H](O)[C@H]1CO [N-methyldeoxynojirimycin]
activity of α-glucosidase I [4]: greatly reduced

O[C@H]1[C@H](O)[C@@H](O)CN2CC[C@H](O)[C@H]12 [castanospermine]
activity of α-glucosidase I [4]: greatly reduced

OC[C@H]1O[C@@](CO)(O[C@H]2O[C@H](CO)[C@@H](O)[C@H](O)[C@H]2O)[C@@H](O)[C@@H]1O [sucrose]
effect on complement-mediated retrovirus inactivation / retrovirus survival [2]: did not affect retrovirus survival

O[C@H]1[C@H]2[C@H](O)CCCN2C[C@H]1O [swainsonine]
activity of Golgi α-mannosidase II [5]: greatly reduced

C[C@@H]1O[C@@H](O)[C@@H](O)[C@H](O)[C@@H]1O [α-L(−) fucose]
effect on complement-mediated retrovirus inactivation / retrovirus survival [2]: did not affect retrovirus survival
